The results in this text go back to article PMC3546861, “HLA-A*0201-restricted CD8^+ T-cell epitopes identified in dengue viruses” (Virology Journal, 2012).

The subject of assay [1] is HLA-A*0201 transgenic mice. Nature of the assay: IFN-γ ELISPOT assay on splenocytes of peptide-immunized mice. It counts as in vivo. The following applies: mice immunized s.c. with peptide 50 μg/mouse in Freund's adjuvant, 5 weekly doses, splenocytes stimulated with cognate peptide 10 μg/ml, 24 h, background subtracted, mean ± SD, 4 mice/group. Here is the method:
(§1) HLA-A*0201 transgenic mice were subdivided into 12 groups (4 mice/group). Mice were inoculated subcutaneously with high-affinity peptide (50 μg/mouse) emulsified in Freund’s complete adjuvant. One week later, mice were immunized with the same peptide emulsified in Freund’s incomplete adjuvant. Mice were boosted three more times at weekly intervals. Mock-immunized (adjuvant alone) HLA-A*0201 transgenic mice and peptide-immunized C57BL/6 mice served as controls. One week after the final immunization, all mice were sacrificed and splenocytes extracted. ELISPOT and ICS assays were conducted to detect the frequencies of peptide-specific IFN-γ-producing cells. All animal were performed following the Institutional Animal Care and Use Committee-approved protocols.
Splenocytes were resuspended to a final concentration of 1 × 10^6 cells/ml in RPMI 1640 medium supplemented with 10% fetal bovine serum (FBS). ELISPOT assays were performed in pre-coated 96-well plates (U-CyTech Company, Netherlands). Splenocytes were seeded at 1 × 10^5 cells/well and exposed to either cognate or heterologous peptide at a final concentration of 10 μg/ml. Negative control wells contained splenocytes but no peptide. Positive control wells included cells plus phytohemagglutinin (PHA) at a final concentration of 10 μg/ml. All tests were carried out in duplicate wells, with plates incubated for 24 h at 37°C/5% CO2. Plates were washed and then incubated with biotinylated anti-mouse IFN-γ for 1 h at 37°C. After washing, plates were labeled with streptavidin-horseradish peroxidase, and developed using fresh ACE solution as a substrate. IFN-γ spots were counted using an ELISPOT reader (Beijing SageCreation Science Co. Ltd, Beijing, China). Peptide-specific T-cell frequency was expressed as SFCs/1 × 10^5 splenocytes. Background spots (negative control wells) were subtracted from test wells. A positive response to a peptide was defined as having > 5 SFCs/1 × 10^5 splenocytes after subtraction of the background.

In assay [2] the test system is HLA-A*0201 transgenic mice. As to the kind of experiment: ICS assay for CD8+ IFN-γ+ T cells in splenocytes of peptide-immunized mice. It counts as in vivo, mouse. To be noted: mice immunized s.c. with peptide 50 μg/mouse in Freund's adjuvant, 5 weekly doses; splenocytes stimulated with cognate peptide 10 μg/ml, 6 h, brefeldin A; CD3+CD8+ gate; mean ± SD, 4 mice/group; SD. How it is done: as §1
Splenocytes were cultured with either cognate peptide (10 μg/ml) or heterologous peptide (10 μg/ml) in a 1.5 ml microcentrifuge tube for 6 h at 37°C/5% CO2. […] During the last 5 h, brefeldin A (10 μg/ml) was added to each tube. After a 6 h incubation, cells were washed and then stained with APC-conjugated anti-mouse CD3 and FITC-conjugated anti-mouse CD8 antibodies (eBioscience company, USA) for 40 min at 4°C. Cells were then washed and fixed with 4% paraformaldehyde for 20 min at 4°C, permeabilized using 0.5% saponin for 10 min at 4 °C, and stained with PE-conjugated anti-mouse IFN-γ antibody (eBioscience company, USA) for 40 min at 4°C. A FACS Calibur flow cytometer (BD Bioscience, USA) was used to analyze labeled cells. CD3^+ CD8^+ T cells were gated and the proportion of IFN-γ-producing CD8^+ T cells (CD8^+ IFN-γ^+ T cells) as a subset of all CD8^+ T cells were determined.

The target in assay [3] is HLA-A*0201 molecule of T2 cells (Homo sapiens, UniProt P04439, D140Y/D185E/D98H/E176V/E277Q/G131W/G231S/I119V/I121R/I166T/I218V/L300P/L318F/N151K/N90K/P208A/P217A/Q86G/Q94H/R138H/R169H/T345S). As to the kind of experiment: MHC-peptide complex stabilization assay on T2 cells. It counts as binding. Further details: key: FI = (MFI sample − MFI background) / MFI background. The following applies: serum-free RPMI 1640, 1 h 37°C, 12 h 26°C, 3 h 37°C, FITC anti-HLA-A*0201, flow cytometry, FI = (MFI sample - MFI background)/MFI background. Here is the method: Figure 1 The affinity of candidate epitopes for HLA-A*0201 molecules. T2 cells were incubated in RPMI 1640 medium lacking peptides (red) or containing low peptide (1 μg/ml) (green) or intermediate peptide (10 μg/ml) (purple) or high peptide (100 μg/ml) (blue) for 15 h and stained with FITC-conjugated anti-HLA-A*0201 antibody. Then, mean fluorescence intensity (MFI) was measured using flow cytometry.
The ability of peptides to stabilize MHC molecules on the surface of T2 cells was measured as described previously. T2 cells (2 × 10^5 cells/0.5 ml) were incubated in serum-free RPMI 1640 medium in the presence of different concentrations of peptide (1, 10, 100 μg/ml) for 1 h at 37°C/5% CO2 incubator. Cells were then incubated at 26°C for 12 h, and then returned to 37°C for a 3 h incubation. Finally, T2 cells were stained with FITC-conjugated anti-HLA-A*0201 antibody (BD Pharmingen, USA) for 40 min at 4°C. T2 cells incubated in serum-free RPMI 1640 medium without peptides served as a negative control (background). Mean fluorescence intensity (MFI) of T2 cells was recorded with a FACS Calibur flow cytometer (BD bioscience, USA), and results expressed as fluorescence index (FI). The following formula was used to calculate the FI.
(1) FI=MFI sample-MFI background/MFI background

Consider “TILTIIGLI [D4V-NS4a140-148, D4V variant peptide of D1V-NS4a140-148, nonapeptide …]”, for which the “ELISPOT IFN-γ spot-forming cells” value in assay [1] turned out to be 17 ± 5 SFCs/1×10^5cells. Further, the “ICS CD8^+IFN-γ^+T cells, proportion in CD8^+ T cells” value in assay [2] worked out at 0.21 ± 0.05%. Moreover, the “FI (fluorescence index)” value stood at 0.15 in assay [3] (peptide 1 μg (1 μg/ml)), 0.3 in assay [3] (peptide 10 μg (10 μg/ml)) and 1.08 in assay [3] (peptide 100 μg (100 μg/ml)).

For QLWAALLSL [D1V-NS2a144-152], the “ELISPOT IFN-γ spot-forming cells” value in assay [1] is listed as 36 ± 6 SFCs/1×10^5cells. For the same sequence, in assay [2], the “ICS CD8^+IFN-γ^+T cells, proportion in CD8^+ T cells” value is given as 0.41 ± 0.07%. For the same sequence, the “FI (fluorescence index)” value in assay [3] (peptide 1 μg (1 μg/ml)) is 0.05; in assay [3] (peptide 10 μg (10 μg/ml)) it was 0.22; in assay [3] (peptide 100 μg (100 μg/ml)) it was 1.12; in assay [3] (peptide 100 μg (100 μg/ml), listed as D1V-NS2a144–152) it was “exceeds 1”.
